In patent US4001218A, “Penicillins” (Bayer Aktiengesellschaft, priority 1972, dated 1977):

Tests used:
E. coli A 261 = experiment: MIC, test tube series dilution test, E. coli A 261; assay type: cell-based; conditions: 24 hours, 37°C
Proteus morg. 932 = experiment: MIC, test tube series dilution test, Proteus morg. 932; assay type: cell-based; conditions: 24 hours, 37°C
Psdm. aerug. Walter = experiment: MIC, test tube series dilution test, Psdm. aerug. Walter; assay type: cell-based, Pseudomonas aeruginosa; conditions: for MIC: Psdm. aerug. Walter, 24 hours, 37°C; for Activity against Psdm. aerug. Walter (minimum inhibitory concentration): 24 hours' incubation
Staph. aureus 133 = assay type: cell-based, Staphylococcus aureus; conditions: for MIC: Staph. aureus 133, 24 hours, 37°C; for Activity against Staph. aureus 133 (minimum inhibitory concentration): 24 hours' incubation
Staph. aureus 1756 = experiment: MIC, test tube series dilution test, Staph. aureus 1756; assay type: cell-based, Staphylococcus aureus; conditions: for MIC: Staph. aureus 1756, 24 hours, 37°C
Proteus vulg. 1017 = assay type: cell-based, Proteus vulgaris; conditions: for MIC: Proteus 1017, 24 hours, 37°C; for Activity against Proteus vulg. 1017 (minimum inhibitory concentration): 24 hours' incubation
E. coli 14 = assay type: cell-based; conditions: for MIC: E. coli 14, 24 hours, 37°C; for Activity against E. coli 14 (minimum inhibitory concentration): 24 hours' incubation
Enterococcus 9790 = experiment: MIC, test tube series dilution test, Enterococcus 9790; assay type: cell-based; conditions: 24 hours, 37°C
Psdm. aerug. F 41 = experiment: MIC, test tube series dilution test, Psdm. aerug. F 41; assay type: cell-based, Pseudomonas aeruginosa; conditions: for MIC: Psdm. aerug. F 41, 24 hours, 37°C; for Activity against Psdm. aerug. F 41 (minimum inhibitory concentration): 24 hours' incubation
E. coli 183/58 = experiment: MIC, test tube series dilution test, E. coli 183/58; assay type: cell-based; conditions: 24 hours, 37°C
E. coli C 165 = experiment: MIC, test tube series dilution test, E. coli C 165; assay type: cell-based; conditions: 24 hours, 37°C
Klebsiella K 10 = experiment: MIC, test tube series dilution test, Klebsiella K 10; assay type: cell-based; conditions: 24 hours, 37°C
Klebsiella 63 = experiment: MIC, test tube series dilution test, Klebsiella 63; assay type: cell-based; conditions: for MIC: Klebsiella 63, 24 hours, 37°C; for Activity against Klebs. 63 (minimum inhibitory concentration): 24 hours' incubation

| SMILES | MIC (E. coli A 261) | MIC (Proteus morg. 932) | MIC (Psdm. aerug. Walter) | MIC (Staph. aureus 133) | MIC (E. coli 14) | MIC (Enterococcus 9790) | MIC (Psdm. aerug. F 41) | MIC (Klebsiella K 10) | further results |
| --- | --- | --- | --- | --- | --- | --- | --- | --- | --- |
| CC1(C)S[C@@H]2[C@H](NC(=O)[C@H](NC(=O)c3ccc(NC(=O)C4(O)CC4)cc3)c3ccccc3)C(=O)N2[C@H]1C(=O)O [Example 2, sodium D(-)-α-(4-cyclopropanol-1-carbonyl-aminobenzoylamino)-benzylpenicillin] | > 256 U/ml | > 256 U/ml | > 256 U/ml | < 1 U/ml | – | – | – | – | – |
| CC1(C)S[C@@H]2[C@H](NC(=O)[C@H](NC(=O)c3ccc(NC(=O)c4cc(Cl)cc(Cl)c4)cc3)c3ccccc3)C(=O)N2[C@H]1C(=O)O [Example 20] | ~ 256 U/ml | – | ~ 4 U/ml | < 1 U/ml | < 1 U/ml | ~ 4 U/ml | – | – | MIC (Staph. aureus 1756): ~ 4 U/ml; MIC (Proteus vulg. 1017): ~ 4 U/ml |
| Cc1cc(C)cc(C(=O)Nc2ccc(C(=O)N[C@@H](C(=O)N[C@@H]3C(=O)N4[C@@H]3SC(C)(C)[C@@H]4C(=O)O)c3ccccc3)cc2)c1 [Example 21] | ~ 256 U/ml | – | – | < 1 U/ml | < 1 U/ml | ~ 4 U/ml | ~ 16 U/ml | – | MIC (E. coli 183/58): ~ 1 U/ml |
| CC1(C)S[C@@H]2[C@H](NC(=O)[C@H](NC(=O)c3ccc(NC(=O)c4ccc(C(F)(F)F)cc4)cc3)c3ccccc3)C(=O)N2[C@H]1C(=O)O [Example 23] | – | – | – | < 1 U/ml | < 1 U/ml | – | – | – | MIC (E. coli 183/58): < 1 U/ml |
| CC1(C)S[C@@H]2[C@H](NC(=O)[C@H](NC(=O)c3ccc(N)cc3)c3ccccc3)C(=O)N2[C@H]1C(=O)O [Example 34, sodium D(-)-α-(4-amino-benzoylamino)-benzylpenicillin] | > 256 U/ml | > 256 U/ml | – | < 1 U/ml | ~ 16 U/ml | ~ 4 U/ml | 64 U/ml | 256 U/ml | MIC (Staph. aureus 1756): 32 U/ml; MIC (Proteus vulg. 1017): 128 U/ml; MIC (E. coli C 165): 32 U/ml; MIC (Klebsiella 63): 128 U/ml |
| CC(C)(CN=[N+]=[N-])C(=O)Nc1ccc(C(=O)N[C@@H](C(=O)N[C@@H]2C(=O)N3[C@@H]2SC(C)(C)[C@@H]3C(=O)O)c2ccccc2)cc1 [Example 39] | > 256 U/ml | – | – | < 1 U/ml | – | – | – | – | MIC (Staph. aureus 1756): ~ 64 U/ml |
| COCC(=O)Nc1ccc(C(=O)N[C@@H](C(=O)N[C@@H]2C(=O)N3[C@@H]2SC(C)(C)[C@@H]3C(=O)O)c2ccccc2)cc1 [Example 42] | – | – | – | < 1 U/ml | – | ~ 4 U/ml | – | > 256 U/ml | MIC (Proteus vulg. 1017): > 256 U/ml |
| CNc1ccc(C(=O)N[C@@H](C(=O)N[C@@H]2C(=O)N3[C@@H]2SC(C)(C)[C@@H]3C(=O)O)c2ccccc2)cc1 [Example 43] | > 256 U/ml | > 256 U/ml | > 256 U/ml | < 1 U/ml | ~ 16 U/ml | – | – | – | – |
| CNC(=O)Nc1ccc(C(=O)N[C@@H](C(=O)N[C@@H]2C(=O)N3[C@@H]2SC(C)(C)[C@@H]3C(=O)O)c2ccccc2)cc1 [Example 44] | – | – | – | < 1 U/ml | ~ 8 U/ml | 4 U/ml | ~ 64 U/ml | 256 U/ml | MIC (Staph. aureus 1756): 64 U/ml; MIC (Proteus vulg. 1017): > 256 U/ml; MIC (E. coli C 165): 16 U/ml; MIC (Klebsiella 63): 128 U/ml |
| CC1(C)S[C@@H]2[C@H](NC(=O)[C@H](NC(=O)c3ccc(NC(=O)Nc4ccc(F)cc4)cc3)c3ccccc3)C(=O)N2[C@H]1C(=O)O [Example 46] | – | – | – | < 1 U/ml | < 1 U/ml | ~ 4 U/ml | – | – | MIC (E. coli C 165): ~ 4 U/ml |
| CNC(=S)Nc1ccc(C(=O)N[C@@H](C(=O)N[C@@H]2C(=O)N3[C@@H]2SC(C)(C)[C@@H]3C(=O)O)c2ccccc2)cc1 [Example 47] | > 256 U/ml | > 256 U/ml | > 256 U/ml | < 1 U/ml | 16 U/ml | 4 U/ml | 64 U/ml | 256 U/ml | MIC (Staph. aureus 1756): 64 U/ml; MIC (Proteus vulg. 1017): 32 U/ml; MIC (E. coli C 165): 32 U/ml; MIC (Klebsiella 63): 128 U/ml |
| CC1(C)S[C@@H]2[C@H](NC(=O)[C@H](NC(=O)c3ccccc3NC(=O)C3CC3)c3ccccc3)C(=O)N2[C@H]1C(=O)O [Example 49] | – | – | – | < 1 U/ml | – | – | < 256 U/ml | > 256 U/ml | MIC (Klebsiella 63): > 256 U/ml |
| CC1(C)S[C@@H]2[C@H](NC(=O)[C@H](NC(=O)c3ccccc3NC(=O)C3CCC3)c3ccccc3)C(=O)N2[C@H]1C(=O)O [Example 50] | – | – | – | < 1 U/ml | – | – | – | > 256 U/ml | – |
| CC1(C)S[C@@H]2[C@H](NC(=O)[C@H](NC(=O)c3cc(NC(=O)C4CC4)ccc3Cl)c3ccccc3)C(=O)N2[C@H]1C(=O)O [Example 53] | – | – | – | < 1 U/ml | 32 U/ml | 2-4 U/ml | 128-256 U/ml | > 256 U/ml | MIC (Staph. aureus 1756): 32-64 U/ml; MIC (Proteus vulg. 1017): > 256 U/ml; MIC (E. coli C 165): 128-256 U/ml; MIC (Klebsiella 63): 128-256 U/ml; MIC (E. coli 183/58): 128-256 U/ml |
| CC1(C)S[C@@H]2[C@H](NC(=O)[C@H](NC(=O)CSc3ccc(NC=O)cc3)c3ccccc3)C(=O)N2[C@H]1C(=O)O [Example 59] | > 256 U/ml | > 256 U/ml | > 256 U/ml | < 1 U/ml | ~ 4 U/ml | – | > 256 U/ml | – | – |
| CC1(C)S[C@@H]2[C@H](NC(=O)[C@H](NC(=O)CSc3ccc(NC(=O)C4CCC4)cc3)c3ccccc3)C(=O)N2[C@H]1C(=O)O [Example 61] | > 256 U/ml | > 256 U/ml | > 256 U/ml | < 1 U/ml | – | ~ 16 U/ml | – | – | – |
| CC1(C)S[C@@H]2[C@H](NC(=O)[C@H](NC(=O)CNC(=O)c3ccc(NC(=O)C4CC4)cc3)c3ccccc3)C(=O)N2[C@H]1C(=O)O [Example 64] | > 256 U/ml | > 256 U/ml | – | – | – | 8 U/ml | 256 U/ml | 128 U/ml | MIC (Staph. aureus 1756): 16 U/ml; MIC (Proteus vulg. 1017): 64 U/ml; MIC (E. coli C 165): 32 U/ml; MIC (Klebsiella 63): 64 U/ml; MIC (E. coli 183/58): 64 U/ml |
| CC1(C)S[C@@H]2[C@H](NC(=O)[C@H](NC(=O)CNC(=O)c3ccc(N)cc3)c3ccccc3)C(=O)N2[C@H]1C(=O)O [Example 70] | > 256 U/ml | > 256 U/ml | > 256 U/ml | < 1 U/ml | – | – | – | – | – |
| CC1(C)S[C@@H]2[C@H](NC(=O)[C@H](NC(=O)c3ccc(NC=O)c(NC=O)c3)c3ccccc3)C(=O)N2[C@H]1C(=O)O [Example 74] | – | – | – | < 1 U/ml | – | – | – | > 256 U/ml | – |
| CC1(C)S[C@@H]2[C@H](NC(=O)[C@H](NC(=O)Cc3ccc(NC(=O)C4CCC4)cc3)c3ccccc3)C(=O)N2[C@H]1C(=O)O [Example 76, sodium D(-)-α-[(4-cyclobutanecarbonylaminophenyl)-acetamido]-benzylpenicillin] | > 256 U/ml | > 256 U/ml | > 256 U/ml | < 1 U/ml | < 4 U/ml | ~ 16 U/ml | > 256 U/ml | – | – |
| CC1(C)S[C@@H]2[C@H](NC(=O)[C@H](NC(=O)c3ccc(NC(=O)C4CCCC4)cc3O)c3ccccc3)C(=O)N2[C@H]1C(=O)O [Example 77, sodium D(-)-α-(4-cyclopentanecarbonylamino-2-hydroxybenzoylamino)benzylpenicillin] | – | – | – | – | – | – | – | – | Activity against Staph. aureus 1756 (minimum inhibitory concentration) (Staph. aureus 1756; 24 hours' incubation): 32-64 U/ml; Activity against E. coli 14 (minimum inhibitory concentration) (E. coli 14): 2-4 U/ml; Activity against Klebs. 63 (minimum inhibitory concentration) (Klebsiella 63): 32-64 U/ml; Activity against Psdm. aerug. Walter (minimum inhibitory concentration) (Psdm. aerug. Walter): 8-16 U/ml |
| COc1cc(C=CC(=O)Nc2ccc(C(=O)N[C@@H](C(=O)N[C@@H]3C(=O)N4[C@@H]3SC(C)(C)[C@@H]4C(=O)O)c3ccccc3)cc2)cc(OC)c1OC [Example 78, sodium D(-)-α-[4-(3,4,5-trimethoxycinnamoylamino-benzoylamino)]-benzylpenicillin] | – | – | – | – | – | – | – | – | Activity against Proteus vulg. 1017 (minimum inhibitory concentration) (Proteus vulg. 1017): 128-256 U/ml; Activity against E. coli 14 (minimum inhibitory concentration) (E. coli 14): 2-4 U/ml; Activity against Klebs. 63 (minimum inhibitory concentration) (Klebsiella 63): 32-64 U/ml; Activity against Psdm. aerug. Walter (minimum inhibitory concentration) (Psdm. aerug. Walter): 32-64 U/ml |
| CC1(C)S[C@@H]2[C@H](NC(=O)[C@H](NC(=O)c3ccc(NC(=O)c4ccc(S(C)(=O)=O)cc4)cc3)c3ccccc3)C(=O)N2[C@H]1C(=O)O [Example 80, sodium D(-)-α-[4-(p-methylsulphonylbenzoylamino)-benzoylamino]-benzylpenicillin] | – | – | – | – | – | – | – | – | Activity against Psdm. aerug. F 41 (minimum inhibitory concentration) (Psdm. aerug. F 41): 32-64 U/ml; Activity against Proteus vulg. 1017 (minimum inhibitory concentration) (Proteus vulg. 1017): 128-256 U/ml; Activity against E. coli 14 (minimum inhibitory concentration) (E. coli 14): 4-8 U/ml; Activity against Klebs. 63 (minimum inhibitory concentration) (Klebsiella 63): 32-64 U/ml; Activity against Staph. aureus 133 (minimum inhibitory concentration) (Staph. aureus 133): < 1 U/ml |
| CC1(C)S[C@@H]2[C@H](NC(=O)[C@H](NC(=O)c3ccc(NC(=O)C4CCCC4)cc3)c3ccc(O)cc3)C(=O)N2[C@H]1C(=O)O [Example 81] | – | – | – | – | – | – | – | – | Activity against Psdm. aerug. F 41 (minimum inhibitory concentration) (Psdm. aerug. F 41): 32-64 U/ml; Activity against Proteus vulg. 1017 (minimum inhibitory concentration) (Proteus vulg. 1017): > 256 U/ml; Activity against E. coli 14 (minimum inhibitory concentration) (E. coli 14): 4-8 U/ml; Activity against Klebs. 63 (minimum inhibitory concentration) (Klebsiella 63): 128-256 U/ml; Activity against Staph. aureus 133 (minimum inhibitory concentration) (Staph. aureus 133): < 1 U/ml |
